Entries after “also recorded” stand apart in the source; their conditions may differ.
How the values were obtained:
[1] = Therapeutic study: hematological parameters; assay type: in vivo, Wistar strain albino rats; settings: for Lymphocyte / Neutrophils: in % (unit assumed); for Eosinophil: unit assumed
Procedure: Wistar strain albino rats of body weight ranging from 190-225 g were selected for the present study. The temperature and humidity were kept at optimum (22+2° C.; 40-70% and animals were exposed to natural chronological day night cycles. The experiments were carried out in conformity with the Institutional Animal Ethics Committee.
The 6 groups were as follows: • 1. Normal Control • 2.
1.5-2 ml blood sample was taken from retino-orbital chamber in vials for biochemical estimations at every 15 days. Investigations performed included detailed Total Cholesterol—TC (mg/dl), Triglyceride—TG (mg/dl), High Density Lipoprotein—HDL-C (mg/dl), Low Density Lipoprotein—LDL-C (mg/dl), Very Low-Density Lipoprotein—VLDL (mg/dl), WBC (10^3/u1), RBC (10^6/u1), Hb (g/dl), PCV (%), Reticulocyte (%), Platelet count 10^5/mm^3, Clotting time (Sec), Neutrophils, Lymphocyte, Monocyte and Eosinophil. The estimations were done with Ecoline kits from Erba Mannheim, ERBA diagnostics Mannheml, Germany using Semi Autoanalyzer RX50 of MicroLabs Instruments and COUNCELL21 of Tulip Diagnostics Pvt. Ltd. Lipid peroxidation (Plasma & Liver), HMG Co-Reductase, Creatine phosphokinase (CPK), Lactate dehydrogenase (LDH), SGOT and SGPT were estimated at the end of both the studies using the kits.

[2] = tested on: heart, spleen, lungs, kidney, liver; test: Prophylactic study: histopathology (heart, spleen, lungs, kidney, liver); assay type: in vivo, Wistar strain albino rats; settings: HFD
Source text: FIG. 1 depicts the histopathological images of heart.
FIG. 2 depicts the histopathological images of Spleen. […] However, this indicates the safety of the composition of the present invention on spleen.
FIG. 3 depicts the histopathological images of Lungs. […] However, this indicates the safety of the composition of the present invention on lungs.
FIG. 4 depicts the histopathological images of kidney. […] However, this indicates the safety of the composition of the present invention on kidney.
FIG. 5 depicts the histopathological images of liver. […] It also indicates the safety of the composition of the present invention on liver. The composition of the present invention was also found useful to prevent the deposition of the fat bodies.

[3] = rat, in vivo
Procedure: The prophylactic study which lasted 90 days used 6 rats per group. […] The 6 groups were as follows: • 1. Normal Control • 2. High Fat Diet (HFD) 1 ml 1/d+Normal Diet • 3. High Fat Diet (HFD)+Normal Diet+the composition of the present invention (OD) • 4, High Fat Diet (HFD)+Normal Diet+the composition of the present invention (BD) • 5. […] The body weights were recorded to the nearest gram (g) with proper tare to 0.0000 with the subject at steady state on the weighing machine. The same weighing machine was used for all the subjects. The machine was tested with a known set of weights for any error.
The long-term rise in the electrolyte such as Na and are associated with blood pressure disorders impacting the heart.

In the case of CC(C)c1c(C(=O)Nc2ccccc2)c(-c2ccccc2)c(-c2ccc(F)cc2)n1CC[C@@H](O)C[C@@H](O)CC(=O)O [Statin, Atorvastatin], the Clotting time ([1]; HFD continued, day 0) is reported as 113.33 ± 1.15 s, the Hb ([1]; HFD continued, day 0) is reported as 12.30 ± 0.20 g/dL and the Monocyte ([1]; HFD continued, day 0) is reported as 1.35%. For the same compound, the PCV ([1]; HFD continued, day 0) was 42.57 ± 1.36%, the Platelet count ([1]; HFD continued, day 0) was 1070 ± 13.9 10³/µL and the RBC ([1]; HFD continued, day 0) was 7.93 ± 0.15 10^6/μl. For the same compound, the Reticulocyte ([1]; HFD continued, day 0) was 1.28 ± 0.03%, the Lymphocyte ([1]; HFD continued, day 0) was 72 and the Neutrophils ([1]; HFD continued, day 0) was 25.5. For the same compound, the Eosinophil ([1]; HFD continued, day 0) was 1.25%, the Clotting time ([1]; HFD continued, day 15) was 114.33 ± 1.15 s and the Hb ([1]; HFD continued, day 15) was 12.40 ± 0.20 g/dL. For the same compound, the Monocyte ([1]; HFD continued, day 15) was 1.35%, the PCV ([1]; HFD continued, day 15) was 43.43 ± 1.53% and the Platelet count ([1]; HFD continued, day 15) was 1070 ± 11.6 10³/µL. For the same compound, the RBC ([1]; HFD continued, day 15) was 8.07 ± 0.15 10^6/μl, the WBC ([1]; HFD continued, day 15) was 8.58 ± 0.32 103/μl and the Lymphocyte ([1]; HFD continued, day 15) was 72. The Neutrophils ([1]; HFD continued, day 15) was 25.5, the Eosinophil ([1]; HFD continued, day 15) was 1.25% and the Clotting time ([1]; HFD continued, day 30) was 114.37 ± 0.71 s. For the same compound, the Hb ([1]; HFD continued, day 30) was 12.83 ± 0.25 g/dL, the PCV ([1]; HFD continued, day 30) was 42.85 ± 0.25% and the Platelet count ([1]; HFD continued, day 30) was 1087 ± 3.61 10³/µL. The RBC ([1]; HFD continued, day 30) was 7.95 ± 0.03 10^6/μl, the Reticulocyte ([1]; HFD continued, day 30) was 1.31 ± 0.03% and the WBC ([1]; HFD continued, day 30) was 8.72 ± 0.07 103/μl. The Lymphocyte ([1]; HFD continued, day 30) was 71.2, the Neutrophils ([1]; HFD continued, day 30) was 26 and the Eosinophil ([1]; HFD continued, day 30) was 1.28%. For the same compound, the Clotting time ([1]; HFD continued, day 45) was 114.40 ± 0.46 s, the Hb ([1]; HFD continued, day 45) was 12.88 ± 0.28 g/dL and the Monocyte ([1]; HFD continued, day 45) was 1.33%. For the same compound, the PCV ([1]; HFD continued, day 45) was 42.93 ± 0.42%, the Platelet count ([1]; HFD continued, day 45) was 1080 ± 14.5 10³/µL and the RBC ([1]; HFD continued, day 45) was 7.90 ± 0.05 10^6/μl. The Reticulocyte ([1]; HFD continued, day 45) was 1.33 ± 0.02%, the WBC ([1]; HFD continued, day 45) was 8.65 ± 0.08 103/μl and the Lymphocyte ([1]; HFD continued, day 45) was 71.67. For the same compound, the Neutrophils ([1]; HFD continued, day 45) was 25.73, the Eosinophil ([1]; HFD continued, day 45) was 1.27% and the Clotting time ([1]; HFD continued, day 60) was 113.33 ± 1.24 s. The Hb ([1]; HFD continued, day 60) was 12.76 ± 0.28 g/dL, the PCV ([1]; HFD continued, day 60) was 42.53 ± 0.57% and the Platelet count ([1]; HFD continued, day 60) was 1070 ± 17 10³/µL. For the same compound, the RBC ([1]; HFD continued, day 60) was 7.83 ± 0.09 10^6/μl, the WBC ([1]; HFD continued, day 60) was 8.57 ± 0.12 103/μl and the Lymphocyte ([1]; HFD continued, day 60) was 71.67. The Neutrophils ([1]; HFD continued, day 60) was 25.70, the Eosinophil ([1]; HFD continued, day 60) was 1.28% and the Clotting time ([1]; HFD discontinued, day 0) was 113.33 ± 1.53 s. The Hb ([1]; HFD discontinued, day 0) was 12.53 ± 0.38 g/dL, the Monocyte ([1]; HFD discontinued, day 0) was 1.35% and the PCV ([1]; HFD discontinued, day 0) was 41.43 ± 1.07%. The Platelet count ([1]; HFD discontinued, day 0) was 1080 ± 11 10³/µL, the RBC ([1]; HFD discontinued, day 0) was 7.73 ± 0.52 10^6/μl and the Reticulocyte ([1]; HFD discontinued, day 0) was 1.24 ± 0.04%. The WBC ([1]; HFD discontinued, day 0) was 8.67 ± 0.59 103/μl, the Lymphocyte ([1]; HFD discontinued, day 0) was 72 and the Neutrophils ([1]; HFD discontinued, day 0) was 25.87. The Eosinophil ([1]; HFD discontinued, day 0) was 1.25%, the Clotting time ([1]; HFD discontinued, day 15) was 113.50 ± 1.00 s and the Hb ([1]; HFD discontinued, day 15) was 12.58 ± 0.08 g/dL. The Monocyte ([1]; HFD discontinued, day 15) was 1.35%, the PCV ([1]; HFD discontinued, day 15) was 41.63 ± 1.02% and the Platelet count ([1]; HFD discontinued, day 15) was 1087 ± 8.02 10³/µL. The RBC ([1]; HFD discontinued, day 15) was 7.97 ± 0.32 10^6/μl, the Reticulocyte ([1]; HFD discontinued, day 15) was 1.26 ± 0.01% and the WBC ([1]; HFD discontinued, day 15) was 8.57 ± 0.42 103/μl. For the same compound, the Lymphocyte ([1]; HFD discontinued, day 15) was 72, the Neutrophils ([1]; HFD discontinued, day 15) was 25.97 and the Eosinophil ([1]; HFD discontinued, day 15) was 1.25%. For the same compound, the Clotting time ([1]; HFD discontinued, day 30) was 113.00 ± 0.70 s, the Hb ([1]; HFD discontinued, day 30) was 12.62 ± 0.07 g/dL and the PCV ([1]; HFD discontinued, day 30) was 41.64 ± 0.07%. The Platelet count ([1]; HFD discontinued, day 30) was 1086 ± 8.19 10³/µL, the RBC ([1]; HFD discontinued, day 30) was 7.73 ± 0.03 10^6/μl and the Reticulocyte ([1]; HFD discontinued, day 30) was 1.27 ± 0.02%. For the same compound, the WBC ([1]; HFD discontinued, day 30) was 8.58 ± 0.04 103/μl, the Lymphocyte ([1]; HFD discontinued, day 30) was 71.3 and the Neutrophils ([1]; HFD discontinued, day 30) was 26.1. The Eosinophil ([1]; HFD discontinued, day 30) was 1.26%, the Clotting time ([1]; HFD discontinued, day 45) was 113.17 ± 0.35 s and the Hb ([1]; HFD discontinued, day 45) was 12.87 ± 0.26 g/dL. The Monocyte ([1]; HFD discontinued, day 45) was 1.27%, the PCV ([1]; HFD discontinued, day 45) was 41.42 ± 0.50% and the Platelet count ([1]; HFD discontinued, day 45) was 1070 ± 18.7 10³/µL. The RBC ([1]; HFD discontinued, day 45) was 7.65 ± 0.08 10^6/μl, the Reticulocyte ([1]; HFD discontinued, day 45) was 1.28 ± 0.07% and the WBC ([1]; HFD discontinued, day 45) was 8.51 ± 0.14 103/μl. It also gave a Lymphocyte ([1]; HFD discontinued, day 45) of 71.58, a Neutrophils ([1]; HFD discontinued, day 45) of 25.9 and an Eosinophil ([1]; HFD discontinued, day 45) of 1.25%. It also gave a Clotting time ([1]; HFD discontinued, day 60) of 112.04 ± 1.28 s, a Hb ([1]; HFD discontinued, day 60) of 12.74 ± 0.27 g/dL and a Monocyte ([1]; HFD discontinued, day 60) of 1.25%. The PCV ([1]; HFD discontinued, day 60) was 41.01 ± 0.64%, the Platelet count ([1]; HFD discontinued, day 60) was 1060 ± 20.3 10³/µL and the RBC ([1]; HFD discontinued, day 60) was 7.57 ± 0.11 10^6/μl. For the same compound, the Reticulocyte ([1]; HFD discontinued, day 60) was 1.26 ± 0.06%, the WBC ([1]; HFD discontinued, day 60) was 8.42 ± 0.16 103/μl and the Lymphocyte ([1]; HFD discontinued, day 60) was 71.70. The Neutrophils ([1]; HFD discontinued, day 60) was 25.81, the Eosinophil ([1]; HFD discontinued, day 60) was 1.24% and the histopathology of heart [2] was “relaxation in the cardiac muscles as the fat content was decreased”. The “histopathology of liver (fatty liver grade)” value ([2]; composition at OD and BD dose levels) was “dilation of hepatic portal triad was more evident; also recorded: from grade 2 to grade 1” and the “Sodium and potassium level” value [3] was “enhanced”.
